Laboratory results: patent US10675360B2 (MADRIGAL PHARMACEUTICALS, INC., priority 2014, dated 2020)

Assay: Stability in mouse plasma
Assay type: in vitro ADME
Settings: mouse plasma; 1 h, 37° C.

| SMILES | % Remaining |
| --- | --- |
| CCc1c2c(nc3ccc(O)cc13)-c1cc3c(c(=O)n1C2)COC(=O)[C@@]3(CC)OC(=O)N1CCC(CCn2ccc3cc(-n4c(O)nnc4-c4cc(C(C)C)c(O)cc4O)ccc32)CC1 [SDC-TRAP-0064, (S)-4,11-diethyl-9-hydroxy-3,14-dioxo-3,4,12,14-tetrahydro-1H-pyrano[3′,4′:6,7]indolizino[1,2-b]quinolin-4-yl 4-(2-(5-(3-(2,4-dihydroxy-5-isopropylphenyl)-5-hydroxy-4H-1,2,4-triazol-4-yl)-1H-indol-1-yl)ethyl)piperidine-1-carboxylate] | 91.5% |
| CCNC(=O)c1nnc(-c2cc(C(C)C)c(O)cc2O)n1-c1ccc(CN2CCC(C(=O)N3CCC(N(C)C(=O)Oc4ccc5nc6c(c(CC)c5c4)Cn4c-6cc5c(c4=O)COC(=O)C5(O)CC)CC3)CC2)cc1 (stereo not drawn) [SDC-TRAP-0172, 4,11-diethyl-4-hydroxy-3,14-dioxo-3,4,12,14-tetrahydro-1H-pyrano[3′,4′:6,7]indolizino[1,2-b]quinolin-9-yl (1-(1-(4-(3-(2,4-dihydroxy-5-isopropylphenyl)-5-(ethylcarbamoyl)-4H-1,2,4-triazol-4-yl)benzyl)piperidine-4-carbonyl)piperidin-4-yl)(methyl)carbamate] | 74.7% |
| CCc1c2c(nc3ccc(O)cc13)-c1cc3c(c(=O)n1C2)COC(=O)C3(CC)OC(=O)CN1CCN(c2ccc(-n3c(O)nnc3-c3cc(C(C)C)c(O)cc3O)cc2)CC1 (stereo not drawn) [SDC-TRAP-0056, 4,11-diethyl-9-hydroxy-3,14-dioxo-3,4,12,14-tetrahydro-1H-pyrano[3′,4′: 6,7]indolizino[1,2-b]quinolin-4-yl 2-(4-(4-(3-(2,4-dihydroxy-5-isopropylphenyl)-5-hydroxy-4H-1,2,4-triazol-4-yl)phenyl)piperazin-1-yl)acetate] | 78% |
| CCNC(=O)c1nnc(-c2cc(C(C)C)c(O)cc2O)n1-c1ccc(OC2CCN(C(=O)[C@@H]3CCCN3C(=O)Oc3ccc4nc5c(c(CC)c4c3)Cn3c-5cc4c(c3=O)COC(=O)[C@]4(O)CC)CC2)cc1 [SDC-TRAP-0209] | 67.1% |
| CCNC(=O)c1nnc(-c2cc(C(C)C)c(O)cc2O)n1-c1ccc2c(ccn2CCC2CCN(C(=O)Oc3ccc4nc5c(c(CC)c4c3)Cn3c-5cc4c(c3=O)COC(=O)[C@]4(O)CC)CC2)c1 [SDC-TRAP-0205, (S)-4,11-diethyl-4-hydroxy-3,14-dioxo-3,4,12,14-tetrahydro-1H-pyrano[3′,4′:6,7]indolizino[1,2-b]quinolin-9-yl 4-(2-(5-(3-(2,4-dihydroxy-5-isopropylphenyl)-5-(ethylcarbamoyl)-4H-1,2,4-triazol-4-yl)-1H-indol-1-yl)ethyl)piperidine-1-carboxylate] | 58.4% |

Same assay, conditions: mouse, plasma, 1 h, 10 μM

| % Remaining | SMILES |
| --- | --- |
| 99.4% | CCNC(=O)c1nnc(-c2cc(C(C)C)c(O)cc2O)n1-c1ccc(Oc2ccc(C(=O)N3CCC(COC(=O)Nc4cccc5c4CN(C4CCC(=O)NC4=O)C5=O)CC3)cc2)cc1 (stereo not drawn) [SDC-TRAP-0125, (1-(4-(4-(3-(2,4-Dihydroxy-5-isopropylphenyl)-5-(ethylcarbamoyl)-4H-1,2,4-triazol-4-yl)phenoxy)benzoyl)piperidin-4-yl)methyl (2-(2,6-dioxopiperidin-3-yl)-1-oxoisoindolin-4-yl)carbamate] |
| 89.1% | CC(C)c1cc(-c2nnc(O)n2-c2ccc(CN3CCN(C(=O)COC(=O)Nc4cccc5c4CN(C4CCC(=O)NC4=O)C5=O)CC3)cc2)c(O)cc1O (stereo not drawn) [SDC-TRAP-0121, 2-(4-(4-(3-(2,4-dihydroxy-5-isopropylphenyl)-5-hydroxy-4H-1,2,4-triazol-4-yl)benzyl)piperazin-1-yl)-2-oxoethyl(2-(2,6-dioxopiperidin-3-yl)-1-oxoisoindolin-4-yl)carbamate] |
| 112% | CCNC(=O)c1nnc(-c2cc(C(C)C)c(O)cc2O)n1-c1ccc(CN2CCC(C(=O)N3CCC(COC(=O)Nc4cccc5c4CN(C4CCC(=O)NC4=O)C5=O)CC3)CC2)cc1 (stereo not drawn) [SDC-TRAP-0124, (1-(1-(4-(3-(2,4-Dihydroxy-5-isopropylphenyl)-5-(ethylcarbamoyl)-4H-1,2,4-triazol-4-yl)benzyl)piperidine-4-carbonyl)piperidin-4-yl)methyl (2-(2,6-dioxopiperidin-3-yl)-1-oxoisoindolin-4-yl)carbamate] |
| 103% | CCc1c2c(nc3ccc(O)cc13)-c1cc3c(c(=O)n1C2)COC(=O)C3(CC)OC(=O)N(C)CCCCN1CCN(Cc2ccc(-n3c(O)nnc3-c3cc(C(C)C)c(O)cc3O)cc2)CC1 (stereo not drawn) [SDC-TRAP-0055, 4,11-diethyl-9-hydroxy-3,14-dioxo-3,4,12,14-tetrahydro-1H-pyrano[3′,4′:6,7]indolizino[1,2-b]quinolin-4-yl (4-(4-(4-(3-(2,4-dihydroxy-5-isopropylphenyl)-5-hydroxy-4H-1,2,4-triazol-4-yl)benzyl)piperazin-1-yl)butyl)(methyl)carbamate] |
| 93.0% | CCNC(=O)c1nnc(-c2cc(C(C)C)c(O)cc2O)n1-c1ccc(CN2CCC(C(=O)N[C@H](C(=O)Nc3cccc4c3CN(C3CCC(=O)NC3=O)C4=O)C(C)C)CC2)cc1 (stereo partly drawn) [SDC-TRAP-0163, 1-(4-(3-(2,4-dihydroxy-5-isopropylphenyl)-5-(ethylcarbamoyl)-4H-1,2,4-triazol-4-yl)benzyl)-N-((2S)-1-((2-(2,6-dioxopiperidin-3-yl)-1-oxoisoindolin-4-yl)amino)-3-methyl-1-oxobutan-2-yl)piperidine-4-carboxamide] |
| 81.4% | CC(C)c1cc(-c2nnc(O)n2-c2ccc(CN3CCN(C(=O)c4ccc(COC(=O)Nc5cccc6c5CN(C5CCC(=O)NC5=O)C6=O)cc4)CC3)c(F)c2)c(O)cc1O (stereo not drawn) [SDC-TRAP-0157, 4-(4-(4-(3-(2,4-dihydroxy-5-isopropylphenyl)-5-hydroxy-4H-1,2,4-triazol-4-yl)-2-fluorobenzyl)piperazine-1-carbonyl)benzyl (2-(2,6-dioxopiperidin-3-yl)-1-oxoisoindolin-4-yl)carbamate] |

| SMILES | % Remaining |
| --- | --- |
| CCNC(=O)c1nnc(-c2cc(C(C)C)c(O)cc2O)n1-c1ccc(OC2CCN(C(=O)Oc3c(C)cc(COC(=O)Nc4cccc5c4CN(C4CCC(=O)NC4=O)C5=O)cc3C)CC2)cc1 (stereo not drawn) [SDC-TRAP-0187, 4-((((2-(2,6-dioxopiperidin-3-yl)-1-oxoisoindolin-4-yl)carbamoyl)oxy)methyl)-2,6-dimethylphenyl 4-(4-(3-(2,4-dihydroxy-5-isopropylphenyl)-5-(ethylcarbamoyl)-4H-1,2,4-triazol-4-yl)phenoxy)piperidine-1-carboxylate] | 102% |
| CCNC(=O)c1nnc(-c2cc(C(C)C)c(O)cc2O)n1-c1ccc(Oc2ccc(OC(=O)N(C)CCOC(=O)Nc3cccc4c3CN(C3CCC(=O)NC3=O)C4=O)cc2)cc1 (stereo not drawn) | 51.2% |
| CCNC(=O)c1nnc(-c2cc(C(C)C)c(O)cc2O)n1-c1ccc2c(c1)CN(Cc1cc(OC)c(OC(=O)Nc3cccc4c3CN(C3CCC(=O)NC3=O)C4=O)c(OC)c1)C2 (stereo not drawn) [SDC-TRAP-0196] | 66.2% |
| CCNC(=O)c1nnc(-c2cc(C(C)C)c(O)cc2O)n1-c1ccc(C(=O)N2CCN(c3cc(C)c(OC(=O)Nc4cccc5c4CN(C4CCC(=O)NC4=O)C5=O)c(C)c3)CC2)cc1 (stereo not drawn) [SDC-TRAP-0178, 4-(4-(4-(3-(2,4-dihydroxy-5-isopropylphenyl)-5-(ethylcarbamoyl)-4H-1,2,4-triazol-4-yl)benzoyl)piperazin-1-yl)-2,6-dimethylphenyl (2-(2,6-dioxopiperidin-3-yl)-1-oxoisoindolin-4-yl)carbamate] | 82.0% |
